Tests used:
NCI-H1975 cells = assay: 5-Day CellTiter Glo (CTG) cell proliferation assay, NCI-H1975; type: cell-based; conditions: Homo sapiens; NCI-H1975 cells (L858R/T790M EGFR), 5-day CTG proliferation, 120 hours; read-out: H1975 IC50
Method: (§1) 5-Day CellTiter Glo (CTG) Cell Proliferation Assays (PC9, H1975, H827)
(§2) Cell proliferation assays were carried out in NSCLC cells with EGFR activation mutations. Both PC-9 cells and HCC827 cells (purchased from DSMZ) carry a Glu746-Ala750 deletion (d746-750) mutation in exon 19 of the EGFR gene and NCI-H1975 cells carry both L858R activation mutation and T790M gatekeeper mutation in the EGFR gene. One thousand PC-9, NCI-H1975 or HCC827 cells/100 μL per well were seeded in 96-well black plate with transparent bottom and then treated with indicated compounds in a 9-dose dilution series dispensed using TECAN d300e liquid dispenser. Cells were incubated with compounds for 120 hours at 37° C. and 5% CO2. Cell proliferation was measured using CellTiter-Glo 2.0 luciferase-based ATP detection assay (Promega, Madison, WI) at […] per well following the manufacturer's protocol. Plates were then read on a TECAN Sparks multimode microplate reader. Data was analyzed using GraphPad Prism 9 (GraphPad Software, San Diego, CA) to obtain IC50 values.

[1] = target: T1, pEGFR, PC-9 cells (d746-750 EGFR) (Homo sapiens, UniProt P00533, DEL746-750); assay: Cellular EGFR phosphorylation assay (LANCE Ultra TR-FRET) in PC-9 cells; type: cell-based; conditions: 4 hours at 37° C., read-out: PC-9 pEGFR IC50
T1 construct: pEGFR (Tyr1068) TR-FRET
Method: (§3) Cellular EGFR Phosphorylation Assays
(§4) EGFR phosphorylation assays were conducted in NSCLC cells with EGFR activation mutations. PC-9 cells (purchased from Aldrich-Sigma) carry a Glu746-Ala750 deletion (d746-750) mutation in exon 19 of the EGFR gene and NCI-H1975 cells (purchased from ATCC) carry both L858R activation mutation and T790M gatekeeper mutation in the EGFR gene. A431 cells (purchased from ATCC) with amplification of wildtype EGFR, derived from epidermoid carcinoma, were used to measure the activity against wildtype EGFR. All cells were seeded in 96-well plates. For PC-9 and NCI-H1975 cells, 50 thousand cells were seeded per well. For A431 cells, 30 thousand cells were seeded per well. The next day, cells were exposed to compound for 4 hours at 37° C. and 5% CO2. Compounds were diluted in DMSO and added to cells in a 9-dose, 3-fold dilution, titration curve using TECAN d300e liquid dispenser. For A431 cells, 40 ng/mL of EGF was added to the media for the final 10 minutes of incubation. EGFR phosphorylation was measured using phospho-EGFR (Try1068) LANCE Ultra TR-FRET Detection Kit (TRF4015M) from PerkinElmer according to manufacturer's instructions. In brief, cells were lysed with 40 μL of lysis buffer plus 1× Halt protease and phosphatase inhibitor cocktail (Thermo 78441) and by incubation at room temperature for 1 h on a microplate shaker (350 rpm). 15 μ L of cell lysate was transferred to 384-well white plate and 5 μL of Europium- and ULight-labeled antibodies diluted in 1× detection buffer was added to each well. After 4-6 hours of incubation at room temperature, plates were then read on a TECAN Sparks multimode microplate reader. Data was analyzed using GraphPad Prism 9 (GraphPad Software, San Diego, CA) to obtain IC50 values.

[2] = target: T2, pEGFR, A431 cells (wildtype EGFR) (Homo sapiens, UniProt P00533); assay: Cellular EGFR phosphorylation assay (LANCE Ultra TR-FRET) in A431 cells; type: cell-based; conditions: 4 hours at 37° C., 40 ng/mL EGF for the final 10 minutes, read-out: A431 pEGFR IC50
T2 construct: pEGFR (Tyr1068) TR-FRET
Method: as §3, §4

[3] = target: T3, pEGFR, NCI-H1975 cells (L858R/T790M EGFR) (Homo sapiens, UniProt P00533, L858R/T790M); assay: Cellular EGFR phosphorylation assay (LANCE Ultra TR-FRET) in NCI-H1975 cells; type: cell-based; conditions: 4 hours at 37° C., read-out: H1975 pEGFR IC50
T3 construct: pEGFR (Tyr1068) TR-FRET
T3 sequence (P00533 25-1210 T790M/L858R): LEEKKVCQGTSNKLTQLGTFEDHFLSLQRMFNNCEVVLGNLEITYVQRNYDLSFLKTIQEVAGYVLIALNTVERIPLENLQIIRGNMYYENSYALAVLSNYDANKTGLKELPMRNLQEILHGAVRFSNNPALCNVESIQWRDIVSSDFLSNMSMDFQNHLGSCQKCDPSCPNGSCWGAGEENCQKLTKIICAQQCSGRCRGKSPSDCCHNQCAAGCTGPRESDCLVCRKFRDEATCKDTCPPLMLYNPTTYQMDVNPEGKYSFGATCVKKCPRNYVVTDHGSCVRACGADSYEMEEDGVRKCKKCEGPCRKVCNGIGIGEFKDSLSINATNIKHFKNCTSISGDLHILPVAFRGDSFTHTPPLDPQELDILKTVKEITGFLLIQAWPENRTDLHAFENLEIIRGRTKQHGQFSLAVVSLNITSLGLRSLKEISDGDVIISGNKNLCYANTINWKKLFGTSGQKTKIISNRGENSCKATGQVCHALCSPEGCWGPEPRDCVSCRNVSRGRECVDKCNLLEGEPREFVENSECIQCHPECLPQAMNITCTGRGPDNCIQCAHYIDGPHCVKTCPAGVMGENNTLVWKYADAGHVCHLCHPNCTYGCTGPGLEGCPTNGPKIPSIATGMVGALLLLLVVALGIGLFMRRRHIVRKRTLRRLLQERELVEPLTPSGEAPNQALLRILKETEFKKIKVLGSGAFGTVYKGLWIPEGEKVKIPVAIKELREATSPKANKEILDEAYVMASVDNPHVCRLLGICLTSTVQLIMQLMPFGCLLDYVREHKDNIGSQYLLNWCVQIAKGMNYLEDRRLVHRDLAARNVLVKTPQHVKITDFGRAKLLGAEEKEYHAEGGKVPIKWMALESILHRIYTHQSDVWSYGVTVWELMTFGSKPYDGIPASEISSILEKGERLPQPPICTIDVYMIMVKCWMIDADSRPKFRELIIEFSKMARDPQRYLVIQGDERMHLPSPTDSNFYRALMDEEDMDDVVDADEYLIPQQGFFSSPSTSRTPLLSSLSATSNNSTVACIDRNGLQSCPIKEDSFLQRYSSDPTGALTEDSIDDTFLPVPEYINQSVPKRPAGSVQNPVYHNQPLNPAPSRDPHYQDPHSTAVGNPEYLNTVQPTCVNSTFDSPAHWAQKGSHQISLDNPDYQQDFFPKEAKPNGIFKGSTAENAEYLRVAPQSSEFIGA
Method: as §3, §4

HCC827 cells = assay: 5-Day CellTiter Glo (CTG) cell proliferation assay, HCC827; type: cell-based; conditions: Homo sapiens; HCC827 cells (d746-750 EGFR), 5-day CTG proliferation, 120 hours; read-out: HCC827 IC50
Method: as §1, §2

EGFR (D746-750) = EGFR (D746-750) (Homo sapiens, UniProt P00533, DEL746-750); assay: HotSpot radiometric kinase assay, inhibition of EGFR 746-750 mutant; type: biochemical; conditions: 33P ATP, room temperature, 120 m
Method: (§5) Biochemical Assays for inhibition of wild-type and mutant EGFRs
(§6) Briefly, specific kinase/substrate pairs along with required cofactors were prepared in reaction buffer; 20 mM HEPES pH 7.5, 10 mM […], 1 mM EGTA, 0.02% Brij35, 0.02 mg/ml BSA, 0.1 mM Na3VO4, 2 mM DTT, 1% DMSO. Compounds were delivered into the reaction, followed ~20 minutes later by addition of a mixture of ATP (Sigma, St. Louis MO) and ^33P ATP (Perkin Elmer, Waltham MA) to a final concentration of […]. Reactions were carried out at room temperature for 120 m, followed by spotting of the reactions onto P81 ion exchange filter paper (Whatman Inc., Piscataway, NJ). Unbound phosphate was removed by extensive washing of filters in 0.75% phosphoric acid. […] IC50 values and curve fits were obtained using Prism (GraphPad Software).

EGFR (D746-750/C797S) = EGFR (D746-750/C797S) (Homo sapiens, UniProt P00533, C797S/DEL746-750); assay: HotSpot radiometric kinase assay, inhibition of EGFR 746-750/C797S mutant; type: biochemical; conditions: 33P ATP, room temperature, 120 m
EGFR (D746-750/C797S), sequence (P00533 with tags, fused parts or gaps DEL746-750/C797S): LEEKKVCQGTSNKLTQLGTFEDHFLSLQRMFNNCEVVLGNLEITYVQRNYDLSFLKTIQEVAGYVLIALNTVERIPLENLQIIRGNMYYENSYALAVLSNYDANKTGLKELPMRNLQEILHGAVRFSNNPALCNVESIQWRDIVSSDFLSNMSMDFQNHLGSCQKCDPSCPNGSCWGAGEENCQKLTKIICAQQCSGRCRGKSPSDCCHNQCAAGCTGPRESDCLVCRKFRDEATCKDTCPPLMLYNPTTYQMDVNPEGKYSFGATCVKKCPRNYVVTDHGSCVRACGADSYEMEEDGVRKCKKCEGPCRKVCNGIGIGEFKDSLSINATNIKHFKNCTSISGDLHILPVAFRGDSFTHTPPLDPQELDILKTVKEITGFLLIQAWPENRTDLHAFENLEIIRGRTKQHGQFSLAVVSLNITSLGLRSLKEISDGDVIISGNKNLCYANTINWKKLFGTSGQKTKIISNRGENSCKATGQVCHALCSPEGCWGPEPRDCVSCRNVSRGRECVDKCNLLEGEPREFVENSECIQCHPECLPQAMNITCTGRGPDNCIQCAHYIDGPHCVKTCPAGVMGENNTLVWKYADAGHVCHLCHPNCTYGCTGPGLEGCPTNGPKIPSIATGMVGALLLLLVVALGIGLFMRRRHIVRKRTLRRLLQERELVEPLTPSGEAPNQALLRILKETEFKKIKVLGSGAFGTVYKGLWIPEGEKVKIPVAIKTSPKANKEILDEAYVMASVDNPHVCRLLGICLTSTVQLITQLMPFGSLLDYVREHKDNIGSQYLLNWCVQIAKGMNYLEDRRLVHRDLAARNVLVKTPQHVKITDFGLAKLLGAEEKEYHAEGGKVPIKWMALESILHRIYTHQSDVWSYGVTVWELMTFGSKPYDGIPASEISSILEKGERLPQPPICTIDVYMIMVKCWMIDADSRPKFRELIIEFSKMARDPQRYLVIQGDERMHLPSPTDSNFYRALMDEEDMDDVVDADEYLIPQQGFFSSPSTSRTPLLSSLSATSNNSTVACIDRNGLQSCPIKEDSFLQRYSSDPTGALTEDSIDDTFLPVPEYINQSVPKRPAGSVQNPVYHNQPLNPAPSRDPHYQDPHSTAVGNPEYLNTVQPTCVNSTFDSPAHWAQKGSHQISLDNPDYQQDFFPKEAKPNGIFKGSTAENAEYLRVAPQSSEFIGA
Method: as §5, §6

EGFR (D770_N771insNPG) = EGFR (D770_N771insNPG) (Homo sapiens, UniProt P00533, INS770NPG); assay: HotSpot radiometric kinase assay, inhibition of EGFR (D770_N771insNPG) mutant; type: biochemical; conditions: 33P ATP, room temperature, 120 m
EGFR (D770_N771insNPG), sequence (P00533 with tags, fused parts or gaps INS770NPG limits assumed): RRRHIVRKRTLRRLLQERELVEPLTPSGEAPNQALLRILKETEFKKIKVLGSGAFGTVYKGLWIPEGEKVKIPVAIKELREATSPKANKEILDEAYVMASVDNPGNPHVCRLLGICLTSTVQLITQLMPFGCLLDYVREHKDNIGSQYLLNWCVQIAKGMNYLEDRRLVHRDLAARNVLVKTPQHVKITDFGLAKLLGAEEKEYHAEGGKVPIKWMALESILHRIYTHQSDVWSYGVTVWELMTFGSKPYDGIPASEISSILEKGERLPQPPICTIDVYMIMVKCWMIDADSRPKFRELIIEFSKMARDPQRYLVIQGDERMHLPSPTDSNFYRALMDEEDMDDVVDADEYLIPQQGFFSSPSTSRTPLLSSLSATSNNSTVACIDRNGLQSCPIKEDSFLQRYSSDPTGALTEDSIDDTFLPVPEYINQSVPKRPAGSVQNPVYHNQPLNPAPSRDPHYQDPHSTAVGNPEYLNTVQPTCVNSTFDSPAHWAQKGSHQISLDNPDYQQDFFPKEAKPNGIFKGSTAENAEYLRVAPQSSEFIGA
Method: as §5, §6

PC-9 cells = assay: 5-Day CellTiter Glo (CTG) cell proliferation assay, PC-9; type: cell-based; conditions: Homo sapiens; PC-9 cells (d746-750 EGFR), 5-day CTG proliferation, 120 hours; read-out: PC-9 IC50
Method: as §1, §2

EGFR (L858R/T790M/C797S) = EGFR (L858R/T790M/C797S) (Homo sapiens, UniProt P00533, C797S/L858R/T790M); assay: HotSpot radiometric kinase assay, inhibition of EGFR L858R/T790M/C797S mutant; type: biochemical; conditions: 33P ATP, room temperature, 120 m
EGFR (L858R/T790M/C797S), sequence (P00533 25-1210 T790M/C797S/L858R): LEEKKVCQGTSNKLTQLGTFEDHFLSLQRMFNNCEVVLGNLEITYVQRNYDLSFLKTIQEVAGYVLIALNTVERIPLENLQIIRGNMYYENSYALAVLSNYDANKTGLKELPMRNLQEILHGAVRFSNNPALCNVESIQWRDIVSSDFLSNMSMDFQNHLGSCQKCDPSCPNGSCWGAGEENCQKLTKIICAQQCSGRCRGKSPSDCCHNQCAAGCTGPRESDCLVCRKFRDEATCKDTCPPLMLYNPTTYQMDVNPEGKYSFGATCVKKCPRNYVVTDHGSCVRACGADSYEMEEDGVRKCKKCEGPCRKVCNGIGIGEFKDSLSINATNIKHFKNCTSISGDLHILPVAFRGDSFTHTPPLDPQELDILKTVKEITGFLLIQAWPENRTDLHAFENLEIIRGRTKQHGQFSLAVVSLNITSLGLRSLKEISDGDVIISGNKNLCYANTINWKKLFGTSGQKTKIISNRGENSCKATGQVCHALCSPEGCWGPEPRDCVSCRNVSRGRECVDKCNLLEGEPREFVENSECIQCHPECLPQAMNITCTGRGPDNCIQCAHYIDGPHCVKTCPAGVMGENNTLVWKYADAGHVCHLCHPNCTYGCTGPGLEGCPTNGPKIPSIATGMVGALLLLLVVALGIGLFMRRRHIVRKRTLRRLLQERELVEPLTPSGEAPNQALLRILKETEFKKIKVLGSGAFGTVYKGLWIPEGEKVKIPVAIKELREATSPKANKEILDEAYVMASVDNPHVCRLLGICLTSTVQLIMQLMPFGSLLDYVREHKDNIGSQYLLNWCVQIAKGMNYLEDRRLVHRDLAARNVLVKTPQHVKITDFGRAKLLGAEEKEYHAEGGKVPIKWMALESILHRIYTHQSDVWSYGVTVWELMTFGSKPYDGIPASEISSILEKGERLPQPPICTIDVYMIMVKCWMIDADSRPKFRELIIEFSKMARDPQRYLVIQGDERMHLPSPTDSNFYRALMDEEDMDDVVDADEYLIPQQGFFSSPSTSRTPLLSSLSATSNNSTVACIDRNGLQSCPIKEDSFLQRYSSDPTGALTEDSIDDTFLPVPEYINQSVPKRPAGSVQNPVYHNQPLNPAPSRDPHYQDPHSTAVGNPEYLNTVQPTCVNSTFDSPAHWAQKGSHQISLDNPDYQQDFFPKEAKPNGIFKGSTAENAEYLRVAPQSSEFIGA
Method: as §5, §6

Row | Compound | IC50 (NCI-H1975 cells) [nM] | IC50 [1] [nM] | IC50 [2] [nM] | IC50 [3] [nM] | IC50 (HCC827 cells) [nM] | IC50 (EGFR (D746-750)) [nM] | IC50 (EGFR (D746-750/C797S)) [nM] | IC50 (EGFR (D770_N771insNPG)) [nM] | IC50 (PC-9 cells) [nM] | IC50 (EGFR (L858R/T790M/C797S)) [nM]
1 | CCN1Cc2c(c(OCC#N)nn2[C@@H](C)CO)/C=C/c2n[nH]c3cnc(cc23)-c2c(C)nn(C)c2O[C@H](C)C1 [Ex. 58, {[(10R,17E)-12-ethyl-14-[(2S)-1-hydroxypropan-2-yl]-6,8,10-trimethyl-2,10,11,12,13,14-hexahydro-8H-5,3-(azenometheno)tripyrazolo[3,4-f:3′,4′-j:4″,3″-n][1,4]oxazacyclopentadecin-16-yl]oxy}acetonitrile] | 14.7 | 1.11 | 21.5 | 2.34 | 0.75 | 0.55 | 1.38 | 0.72 | 2.44 | 1.01
2 | Cc1nn(C)c2c1-c1cc3c(n[nH]c3cn1)/C=C/c1c(OCC#N)nn([C@@H](C)CO)c1CN1CCC[C@@H]1CO2 [Ex. 64, {[(8aR,19E)-3-[(2S)-1-hydroxypropan-2-yl]-11,13-dimethyl-3,4,7,8,8a,9,11,17-octahydro-6H-14,16-(azenometheno)tripyrazolo[3,4-f:3′,4′-j:4″,3″-n]pyrrolo[2,1-c][1,4]oxazacyclopentadecin-1-yl]oxy}acetonitrile] | 26.6 | 2.74 | 29.6 | 2.79 | 1.02 | 0.41 | 1.2 | 0.42 | 5.63 | 0.82
3 | Cc1nn(C)c2c1-c1cc3c(n[nH]c3cn1)/C=C/c1c(OCC#N)nn(CCO)c1CN(C)C[C@@H](C)O2 [Ex. 42, {[(10R,17E)-14-(2-hydroxyethyl)-6,8,10,12-tetramethyl-2,10,11,12,13,14-hexahydro-8H-5,3-(azenometheno)tripyrazolo[3,4-f:3′,4′-j:4″,3″-n][1,4]oxazacyclopentadecin-16-yl]oxy}acetonitrile] |  |  |  |  |  | 0.29 | 0.83 | 0.35 |  | 0.56
4 | CCOc1nn(CCO)c2c1/C=C/c1n[nH]c3cnc(cc13)-c1cnn(C)c1O[C@@H](C)CN(CC)C2 [Ex. 34, 2-[(10S,17E)-16-ethoxy-12-ethyl-8,10-dimethyl-2,8,10,11,12,13-hexahydro-14H-5,3-(azenometheno)tripyrazolo[3,4-f:3′,4′-j:4″,3″-n][1,4]oxazacyclopentadecin-14-yl]ethan-1-ol] | 1.75 |  |  |  | 0.39 | 0.12 | 0.31 | 0.11 | 4.22 | 0.28
5 | CCc1nn(CCO)c2c1/C=C/c1n[nH]c3cnc(cc13)-c1c(C)nn(C)c1O[C@@H](C)CN(C)C2 [Ex. 60] | 57.5 | 2.39 | 29 | 2.49 | 1.77 | 0.54 | 1.72 | 0.78 | 5.05 | 0.86
6 | Cc1nn(C)c2c1-c1cc3c(n[nH]c3cn1)/C=C/c1c(OCC#N)nn([C@@H](C)CO)c1CN(C)CCO2 [Ex. 70, {[(17E)-14-[(2S)-1-hydroxypropan-2-yl]-6,8,12-trimethyl-2,10,11,12,13,14-hexahydro-8H-5,3-(azenometheno)tripyrazolo[3,4-f:3′,4′-j:4″,3″-n][1,4]oxazacyclopentadecin-16-yl]oxy}acetonitrile] |  |  |  |  |  | 0.16 | 0.69 | 0.41 |  | 0.31
7 | Cc1nn(CCO)c2c1/C=C/c1n[nH]c3c(C)nc(cc13)-c1cnn(C)c1O[C@@H](C)CN(C)C2 [Ex. 51, 2-[(10S,17E)-8,10,12,16,20-pentamethyl-2,8,10,11,12,13-hexahydro-14H-5,3-(azenometheno)tripyrazolo[3,4-f:3′,4′-j:4″,3″-n][1,4]oxazacyclopentadecin-14-yl]ethan-1-ol] |  |  |  |  |  | 0.31 | 0.83 | 1.11 |  | 0.37

Further compounds by falling IC50 (EGFR (D746-750)), results first:

Row | IC50 (NCI-H1975 cells) [nM] | IC50 [1] [nM] | IC50 [2] [nM] | IC50 [3] [nM] | IC50 (HCC827 cells) [nM] | IC50 (EGFR (D746-750)) [nM] | IC50 (EGFR (D746-750/C797S)) [nM] | IC50 (EGFR (D770_N771insNPG)) [nM] | IC50 (PC-9 cells) [nM] | IC50 (EGFR (L858R/T790M/C797S)) [nM] | Compound
8 | 16.9 | 1.13 | 13.2 | 1.54 | 0.44 | 0.42 | 1.58 | 0.42 | 1.08 | 0.74 | CCc1nn(CCO)c2c1/C=C/c1n[nH]c3cnc(cc13)-c1c(C)nn(C)c1O[C@@H](C)CN(CC)C2 [Ex. 62, 2-[(10S,17E)-12,16-diethyl-6,8,10-trimethyl-2,8,10,11,12,13-hexahydro-14H-5,3-(azenometheno)tripyrazolo[3,4-f:3′,4′-j:4″,3″-n][1,4]oxazacyclopentadecin-14-yl]ethan-1-ol]
9 | 227 | 6.22 | 21 | 6.39 | 2.49 | 0.33 | 1.18 | 0.95 | 15.4 | 0.44 | CCOc1nn(CCO)c2c1/C=C/c1n[nH]c3cnc(cc13)-c1c(C)nn(C)c1OCCN(C)C2 [Ex. 68, 2-[(17E)-16-ethoxy-6,8,12-trimethyl-2,8,10,11,12,13-hexahydro-14H-5,3-(azenometheno)tripyrazolo[3,4-f:3′,4′-j:4″,3″-n][1,4]oxazacyclopentadecin-14-yl]ethan-1-ol]
10 |  |  |  |  |  | 0.15 | 0.4 | 0.36 |  | 0.23 | Cc1nn([C@@H](C)CO)c2c1/C=C/c1n[nH]c3cnc(cc13)-c1c(C)nn(C)c1O[C@@H](C)CN(C)C2 [Ex. 46, (2S)-2-[(10S,17E)-6,8,10,12,16-pentamethyl-2,8,10,11,12,13-hexahydro-14H-5,3-(azenometheno)tripyrazolo[3,4-f:3′,4′-j:4″,3″-n][1,4]oxazacyclopentadecin-14-yl]propan-1-ol]
11 |  |  |  |  |  | 0.12 | 0.34 | 0.19 |  | 0.21 | Cc1nn(C)c2c1-c1cc3c(n[nH]c3cn1)/C=C/c1c(OCC#N)nn(CCO)c1CN(C)[C@H](C)CO2 [Ex. 49, {[(11R,17E)-14-(2-hydroxyethyl)-6,8,11,12-tetramethyl-2,10,11,12,13,14-hexahydro-8H-5,3-(azenometheno)tripyrazolo[3,4-f:3′,4′-j:4″,3″-n][1,4]oxazacyclopentadecin-16-yl]oxy}acetonitrile]

From US20260317344A1, “EGFR INHIBITORS FOR TREATING DISEASE” (BLOSSOMHILL THERAPEUTICS, INC., priority 2023, published 2026)
